Converted amounts (≈) assume the structure as drawn. Read-outs that look alike come from different tables or passages of the source.
What was measured:
[1] = system: Mannosidase II; assay: Mannosidase II immunocytochemistry; format: cell-based
Experimental: GS15, GS28, GPP130, and Mannosidase II, sparing the golgi structural protein GM-130 and having little effect on the Rab GTPase Rab6. Furthermore, these affects were most pronounced following overnight (16-20 hr) incubations with AVP 893, although some affects at early time points were seen. These conclusions were drawn from the western blot analysis (FIG. 29), as well as from the immunocytochemical studies (FIGS. 30-31).
Additional evidence that AVP 893 has unique activity against resident golgi proteins (e.g. Mannosidase II), was found using both shorter durations of drug exposure and immunocytochemistry instead of western blot analysis (FIG. 43).

[2] = system: mouse spleen cells; assay: Proliferation of IL-4/anti-CD40 Ab-stimulated mouse spleen cells; format: cell-based; conditions: read-out: anti-proliferative potency
Experimental: BALB/c spleen cells were cultured for 20 hours in the presence of stimulus+/−AVP 893 (100 ng/ml) and harvested and prepared as described in FIG. 17. Stimulus conditions include: LPS (10 μg/ml), IL-4 (10 ng/ml) plus anti-CD40 Ab (100 ng/ml), PMA (10 ng/ml) plus ionomycin (100 nM), or Con A (5 μg/ml). […] This experiment was carried out as described for FIG. 21, except that different AVP compounds with high (AVP 893, 5 nM), medium (AVP 26297, 50 nM), and low (AVP 25630, 500 nM) anti-proliferative potency were tested and compared. AVP 893 was tested at 1, 10, and 100 ng/ml; AVP 26297 was tested at 1, 10, 100, and 1000 ng/ml; AVP 25630 was tested at 10, 100, and 1000 ng/ml.

[3] = system: MOLT4 cells; assay: Electron microscopic analysis of golgi structure; format: cell-based; conditions: 200 ng/mL, 2 hrs and 18 hrs
Experimental: Experiments were conducted to examine the golgi structure and morphology on the ultrastructural level following treatment with AVP 893. […] This finding was repeated with Vero cells, where AVP 893 was applied for 1 hr, 4 hrs, and 18 hrs, with the later two exposures resulting in disruption of cisternal structure (data not shown). We therefore conclude that AVP 893 disturbs the structure of the golgi cistemae within a few hours of treatment.

[4] = system: Rab6; assay: Rab6 expression; format: cell-based
[5] = system: PC12 pheochromocytoma cells; assay: Norepinephrine release and dopamine re-uptake in PC12 cells; format: cell-based; conditions: not shown
Description: The proposed mechanism of the AVP compounds on intracellular protein transit also allows certain predictions as to other effects and non-effects that these compounds might share. For example, inhibition of vesicle fusion or budding between the ER and golgi should not affect exocytosis as would be expected of a post-golgi active compound such as Monensin. AVP 893 has minimal effects on the expression of proteins involved in exocytosis, particularly VAMP, SNAP23 (non-neuronal cells), and SNAP25 (neuronal cells).

[6] = system: HSV; assay: Guinea pig topical HSV model; format: in vivo; conditions: data not shown
Experimental: Representative viruses from families likely to utilize the golgi were tested. […] (data not shown).

[7] = system: MOLT-4; assay: Inhibition of tumor cell proliferation in vitro (SRB total protein); format: cell-based; conditions: Homo sapiens
Experimental: (§1) For a typical screening experiment, cells are inoculated into 96 well microtiter plates in 100 μl at plating densities ranging from 5,000 to 40,000 cells/well depending on the doubling time of individual cell lines. After cell inoculation, the microtiter plates are incubated at 37° C., 5% or 10% CO2—depending on the cell line and media—95% air and 100% relative humidity for 24 h prior to addition of experimental drugs. After 24 h, two plates of each cell line are fixed in situ with TCA, to represent a measurement of the cell population for each cell line at the time of drug addition. Following drug addition, the plates are incubated for an additional 48 h at 37° C., 5%/10% CO2, 95% air, and 100% relative humidity. For adherent cells, the assay is terminated by the addition of cold TCA. Cells are fixed in situ by the gentle addition of 50 μl of cold 50% (w/v) TCA (final concentration, 10% TCA) and incubated for 60 minutes at 4° C. The supernatant is discarded, and the plates are washed five times with tap water and air-dried. Sulforhodamine B (SRB) solution (10011) at 0.4% (w/v) in 1% acetic acid is added to each well, and plates are incubated for 10 minutes at room temperature. After staining, unbound dye is removed by washing five times with 1% acetic acid and the plates are air-dried. Bound stain is subsequently solubilized with 10 mM trizma base, and the absorbance is read on an automated plate reader at a wavelength of 515 nm. For suspension cells, the methodology is the same except that the assay is terminated by fixing settled cells at the bottom of the wells by gently adding 50 μl of 80% TCA (final concentration, 16% TCA). Using the seven absorbance measurements [time zero, control growth, and test growth in the presence of drug at the five concentration levels], the percentage growth is calculated at each of the drug concentrations levels.
(§2) Brefeldin A was tested by the NCI for inhibition of tumor cell proliferation in the 60-cell screen. The NCI 60-cell screen was performed essentially as described for FIG. 9. Data available from the NCI database for Brefeldin A was compared with more recent AVP 893 data. […] Several tumor cell lines were cultured in the presence of either AVP 893 or Brefeldin A for about 72 hours before assessing proliferation response by measuring total protein (SRB), as described for FIG. 9. The results of the head-to-head comparisons performed in-house also show substantial variation in the relative proliferative responses of cells to Brefeldin A and AVP 893 in vitro (TABLE 3).

[8] = system: NCI H-460; assay: as above; format: cell-based; conditions: Homo sapiens
Experimental: as §1, §2

[9] = system: SW480; assay: as above; format: cell-based; conditions: Homo sapiens, column Avanir, read-out: IC50 (ng/ml), Avanir
Experimental: as §1, §2

[10] = system: OVCAR3; assay: as above; format: cell-based; conditions: Homo sapiens
Experimental: as §1, §2

[11] = system: Hs578T; assay: as above; format: cell-based; conditions: Homo sapiens, Hs-578T
Experimental: as §1, §2

[12] = system: HCC 1806; assay: as above; format: cell-based; conditions: Homo sapiens, HCC1806, 72 h, in-house head-to-head, about 72 hours, read-out: IC50
Experimental: as §1, §2

[13] = column Avanir, read-out: IC50 (ng/ml), Avanir
[14] = column NCI, read-out: IC50 (ng/ml), NCI
[15] = in-house head-to-head, about 72 hours, SRB, read-out: IC50

O=C(Nc1ccc(-c2nc3cc(NC(=O)C4CCCCC4)ccc3[nH]2)cc1)C1CCCCC1 [AVP 893]
Mannosidase II staining pattern ([1]; 1 hr of treatment, immunocytochemistry): no apparent effect
Mannosidase II in golgi ([1]; after 4 hrs of application): little to no discernible amount of the enzyme remaining after 4 hrs
IC50 [2]: 5 nM
golgi structure by electron microscopy [3]: no golgi cisternae were found
Rab6 expression ([4]; 3T3 and PMA/ionomycin-stimulated spleen cells, overnight): suppressed Rab6 expression
Rab6 staining ([4]; immunocytochemistry, even after 18 hrs): not diminished nor significantly altered
release of norepinephrine, re-uptake of dopamine [5]: does not affect the release of norepinephrine or the re-uptake of dopamine
viral activity in vivo [6]: may inhibit viral activity in vivo
IC50 [7, 13]: 0.001 ng/mL (≈ 0.00225 nM)
IC50 [7, 14]: < 10 ng/mL
IC50 [7, 15]: 30 ng/mL (≈ 67.5 nM)
IC50 ([8]; NCI-H460, column Avanir, read-out: IC50 (ng/ml), Avanir): > 2000 ng/mL
IC50 ([8]; NCI-H460, column NCI, read-out: IC50 (ng/ml), NCI): 400 ng/mL (≈ 900 nM)
IC50 ([8]; NCI-H460, in-house head-to-head, about 72 hours, SRB, read-out: IC50): > 3000 ng/mL
IC50 [9]: 1500 ng/mL (≈ 3370 nM)
IC50 ([10]; OVCAR-3, column Avanir, read-out: IC50 (ng/ml), Avanir): 200 ng/mL (≈ 450 nM)
IC50 ([10]; OVCAR-3, column NCI, read-out: IC50 (ng/ml), NCI): 1000 ng/mL (≈ 2250 nM)
IC50 [11, 13]: 2 ng/mL (≈ 4.5 nM)
IC50 [11, 14]: < 10 ng/mL
IC50 [11, 15]: < 1 ng/mL
IC50 [12]: 4 ng/mL (≈ 9 nM)

— patent US20050256179A1, “Selective pharmacologic inhibition of protein trafficking and related methods of treating human diseases” (priority 2003, published 2005)
